Measured values: patent US20050203000A1, “Use of benzyl alcohol, and other phenolic preservatives to reduce pain during intradermal injection” (priority 2003, published 2005)

Columns and labels:
[1] = Dermal irritancy of preservatives in intradermal formulations (Draize dermal irritation scoring); type: in vivo, human; details: irritancy potential had been seen in animal models such as swine
From the text: Benzyl alcohol, m-cresol and other preservatives were previously thought to be deleterious for inclusion in ID formulations based on their potential for dermal irritancy measured in animal models such as swine (Draize Irritancy Scores, NB 00-8440-01). In humans, however, these effects are not observed and beneficial results are gained in the perception of reduced pain.
(§1) Typically, each participating subject received a series of ‘treatments’ consisting of intradermal infusions or injections of either sterile unpreserved isotonic saline, or sterile bacteriostatic isotonic saline for injection in the anterior thigh using microneedle-based intradermal injection devices. Participants were asked to rate the pain immediately after the device was applied to the skin, and at the end of the injection/infusion procedure. In addition, injection sites were evaluated for irritation using the Draize dermal irritation scoring scale for erythema and edema, and for the presence of any other adverse skin effects, occurring at the time of injection or developing at a later time.

[2] = Pain perception of intradermal injection/infusion, Gracely Box SL Scale (0-20), human clinical study; type: in vivo; details: recent clinical trials
Experimental: A series of prospective, randomized, open label human clinical studies were conducted. The following inclusion criteria was typically used: • 18 years of age or older • In stable health status with no acute or severe illness • Willing to complete all study procedures • Available for designated study days
as §1, with “time. […]” for “time.”
Pain was determined using a Gracely Box SL Scale (reference: Heft, Gracely and Dubner, Pain, 1980, 9:363-373). Pain scores were typically recorded after insertion of the intradermal delivery device, and upon complete intradermal instillation of the total saline dose. […]
Typically, pain scale scores were analyzed by ANOVA using a linear-type model. […]

Molecule | Dermal irritancy effects in humans [1] | Pain scores for intradermal delivery compared with preservative-free solutions [2]
OCc1ccccc1 [Benzyl alcohol] | not observed | –
Cc1cccc(O)c1 [m-cresol] | not observed | –
insulin | – | significantly lower pain scores
